Laboratory results: patent US20240142474A1, “Opsins as Chemosensory Receptors and Related Methods” (The Regents of the University of California, priority 2021, published 2024)
“Also recorded” adds a separate entry of the source.

Assays:
TRPM5 knockout mice = assay: Mouse brief-access taste assay (lickometer), TRPM5 knockout mice compared to wild type; assay type: in vivo; details: TRPM5 knockout (taste blind) mice, water restricted
OPN3 [1] = target: T1, OPN3 (Homo sapiens, UniProt Q9H1Y3); assay: Calcium flux GPCR activation assay with Fluo-8 dye, opsin-expressing HEK293T cells, OPN3; assay type: cell-based; details: Fluo-8 calcium flux, data not shown
T1 construct: expressed in transfected cells; host or cells: HEK293T
T1 sequence (Q9H1Y3 whole entry): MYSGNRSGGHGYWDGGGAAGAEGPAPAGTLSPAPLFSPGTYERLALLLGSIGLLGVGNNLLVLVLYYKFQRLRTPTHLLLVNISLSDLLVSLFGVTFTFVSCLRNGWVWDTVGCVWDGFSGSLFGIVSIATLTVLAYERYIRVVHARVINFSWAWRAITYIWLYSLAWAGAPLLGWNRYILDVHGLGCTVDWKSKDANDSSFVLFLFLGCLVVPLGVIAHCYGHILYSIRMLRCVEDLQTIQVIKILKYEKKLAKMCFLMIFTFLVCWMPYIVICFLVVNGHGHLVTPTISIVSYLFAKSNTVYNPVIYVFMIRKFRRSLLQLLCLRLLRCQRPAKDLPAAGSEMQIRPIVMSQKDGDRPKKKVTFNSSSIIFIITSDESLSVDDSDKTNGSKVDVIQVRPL
Method: (§1) These foregoing TANTO results were further confirmed using a second, a calcium flux GPCR activation assay employing Fluo-8 dye, as follows. For this intracellular Ca^2+ measurement, opsin-expressing HEK293T cells were seeded onto 96-well plates (4×10^4 cells per well) in 100 μl of culture medium with reduced serum contents (0.5% of FBS) per well and incubated overnight under standard culture conditions. [Ca2+]i level was assessed the next day after stimulation with bitter compounds used at a different concentration with the SCREEN QUEST Fluo-8 No Wash Calcium Assay Kit (AAT Bioquest, Inc., Sunnyvale, CA, USA) according to the supplier's protocol. Calcium flux was monitored simultaneously by the change in fluorescence (Ex/Em=490/520 nm) following stimulation and with respect to the background fluorescence. [Ca^2+]i was monitored for a period of three minutes, starting before the addition of compounds to the wells and continuing during measurement of the fluorescent signal following cells' stimulation. The obtained fluorescence reads were normalized to the results obtained after stimulation of the cells with the compound solvent.

OPN3 [2] = target: T2, OPN3 (Mus musculus, UniProt Q9WUK7); assay: TANGO assay (beta-arrestin recruitment, luciferase reporter) in HTLA cells, OPN3; assay type: cell-based; details: 4 hours
T2 construct: expressed in transfected cells; host or cells: HTLA cells (HEK293 line with tTA-dependent luciferase reporter and beta-arrestin2-TEV fusion)
T2 sequence (Q9WUK7 whole entry, the tested form may be a part): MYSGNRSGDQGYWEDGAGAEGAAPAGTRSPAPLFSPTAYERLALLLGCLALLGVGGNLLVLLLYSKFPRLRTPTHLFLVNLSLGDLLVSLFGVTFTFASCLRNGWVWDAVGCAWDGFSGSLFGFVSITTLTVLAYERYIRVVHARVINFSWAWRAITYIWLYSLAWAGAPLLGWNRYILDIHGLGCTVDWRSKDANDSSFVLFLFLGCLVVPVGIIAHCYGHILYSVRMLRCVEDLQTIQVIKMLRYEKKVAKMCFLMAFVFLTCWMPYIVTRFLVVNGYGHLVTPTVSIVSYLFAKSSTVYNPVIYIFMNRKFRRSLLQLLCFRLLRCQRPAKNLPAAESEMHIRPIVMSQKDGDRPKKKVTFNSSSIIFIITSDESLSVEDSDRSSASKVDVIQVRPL
Source text: (§2) For example, in one implementation the chemosensory opsin activation detection element comprises a TANGO assay (Transcriptional Activation Following Arrestin Translocation), as known in the art, for example, as described by Kroeze et al., 2015. PRESTO-Tango as an open-source resource for interrogation the druggable human GPCRome. Nat Struct Mol Biol 22, 362-369. In the TANGO systems of the invention, a cell is engineered to express a chemosensory opsin in the form of a fusion protein, wherein the opsin fusion protein comprises an optional membrane trafficking signal (e.g. HA), an optional FLAG tag or like epitope to facilitate detection, and a transcriptional activator which induces the expression of a reporter gene, such as luciferase, wherein the transcriptional activator is joined to an intracellular portion of the opsin, for example, the […], by a cleavage sequence. The cells of the TANGO system are further engineered to express a second fusion protein comprising a beta-arrestin fused to a protease, for example, a TEV protease, wherein the protease is capable of cleaving the fusion protein at the cleavage site. The cells of the TANGO system are further engineered to express a reporter protein, e.g. luciferase, under the control of a transcriptional activator, for example, tetracycline-controlled transactivaor (tTA). Ligand binding to the opsin deployed in the TANGO system triggers a conformational change in the opsin that recruits the beta arrestin-protease fusion protein to the opsin, where proximity of the protease induces cleavage of the transcriptional activator, which trafficks to the nucleus and induces the expression of the reporter gene. The TANGO system advantageously allows direct quantification of opsin activation, independent of g protein activity.
(§3) Human transcriptomics data was mined to identify putative taste receptor proteins. […] However, the role of these opsins in taste perception has not been previously explored. TANGO detection elements employing each of these opsins, in both human and mouse isoforms, were created in HTLA cells (a HEK293 cell line stably expressing a tTA-dependent luciferase reporter and a β-arrestin2-TEV fusion gene), based on protocols in Kroeze et al., 2015. PRESTO-Tango as an open-source resource for interrogation of the druggable human GPCRome. Nat Struct Mol Biol 22, 362-369.
(§4) In the TANGO assay, the mouse opsin coding sequence with an N-terminal FLAG tag was synthesized. The construct was cloned into a TANGO vector (Addgene, Waterton MA) at the ClaI site (FLAG::opsin). The HTLA cells were transfected in a 6-well format with LIPOFECTAMINE 2000™ (Thermo Fisher Scientific, Inc, Waltham MA, USA) according to the manufacturer's instructions. 6-8 hours post transfection cells weret split 1:3 and the media was switched to DMEM+ 2.5% fetal bovine serum (Thermo Fisher Scientific Inc., Waltham MA, USA). Cells were allowed to grow for 48 hours before splitting the cells onto poly-L-lysine-coated 96-well clear, flat bottom white polystyrene plates in serum-free media. The next day, chemical solutions diluted in TANGO assay buffer (20 mM HEPES, 1× HBSS, pH 7.40) were added to the cells. After 4 hours, the medium and drug solutions were removed and replaced with […] per well of BRIGHTGLO™ reagent (Promega Corporation, Madison WI) diluted 20-fold with TANGO assay buffer. Plates were incubated for 20 minutes at room temperature in the dark before measuring luminescence with a plate reader (Molecular Devices, iD3). The normalized response was calculated using following formula: RLU (relative luminescence units)=test compound RLU−average vehicle control RLU.

OPN3 knockout mice = assay: Mouse brief-access taste assay (lickometer), OPN3 knockout mice compared to wild type; assay type: in vivo; details: water restricted
Method: Knockout mice were obtained for OPN1SW and OPN3. Two independent OPN3 knockout mice lines were tested for reaction to naringin by a mouse taste preference assay. A Lickometer device (MS-160, Di Log Instruments, Inc.,Tallahassee, FL, USA) was used to train mice and then measure their licking responses to different tastants in brief-access trials. On a given trial, each sipper tube was filled with a solution and made available to a mouse via a small port that opened to a metal/plexiglass chamber housing the animal. The mouse chamber of the lickometer was modified for these studies by adding a plexiglass barrier that restricted the free movement of animals to an approximate 10 by 15 cm area facing the fluid access port. A computer running software that communicated with the lickometer recorded tongue contacts with the metal tip of the sipper tube during licking and the time intervals (precision=1 ms) between consecutive licks (inter-lick intervals). The amount of time that the sipper tube was available through the access port could be programmed and was controlled by the opening of a normally closed, computer-actuated shutter. This feature facilitated presentation of solutions to a mouse for only a few seconds to support measurements of brief-access licking behavior. By indexing initial licking responses to stimuli over short periods, brief-access procedures intend to focus on oral sensory influences and avoid any post-ingestive effect. Groups of three to four mice were run in these studies at one time. Groups always included equal numbers of mutant and wild-type mice to control for temporal factors.
Training. Mice were restricted from drinking water for 20-22 hours prior to the onset of training. During training, experimentally naive mice learned to receive fluid in the lickometer over a 3-day period. On the first and second day of training, mice were given 30 minutes free access to a single sipper tube of water to familiarize them with accessing fluid in the lickometer device. Each 30 minute period began when the mouse made its first lick on the sipper tube; mice were allowed 30 minutes to make their first lick. On the third day of training, mice were presented with 10 second presentations (i.e., trials) of water to familiarize them with receiving and consuming fluid under a brief-access procedure in the lickometer. On each trial, the shutter that blocked access to the sipper tube was opened and mice were given 10 seconds to lick, and lick data were recorded by the lickometer computer. […]
Testing. […] For studies, individual Opn3KO, Opn1swKO, Opn4KO, Opn5KO and wild-type mice were evaluated for brief-access licking responses with different agonists. […]

OPN1SW [3] = target: T3, OPN1SW (Mus musculus, UniProt P51491); assay: TANGO assay (beta-arrestin recruitment, luciferase reporter) in HTLA cells, OPN1SW; assay type: cell-based; details: 4 hours
T3 construct: expressed in transfected cells; host or cells: HTLA cells (HEK293 line with tTA-dependent luciferase reporter and beta-arrestin2-TEV fusion)
T3 sequence (P51491 1-346): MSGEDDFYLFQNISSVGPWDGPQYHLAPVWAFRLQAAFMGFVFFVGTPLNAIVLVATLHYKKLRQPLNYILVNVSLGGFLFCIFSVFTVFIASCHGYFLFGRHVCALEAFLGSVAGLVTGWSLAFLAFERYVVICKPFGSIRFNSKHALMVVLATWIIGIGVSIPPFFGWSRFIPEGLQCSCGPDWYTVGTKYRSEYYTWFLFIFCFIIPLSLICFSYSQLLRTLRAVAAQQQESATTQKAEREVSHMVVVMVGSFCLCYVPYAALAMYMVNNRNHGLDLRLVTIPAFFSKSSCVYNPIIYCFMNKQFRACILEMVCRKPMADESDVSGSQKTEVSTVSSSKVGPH
Source text: as §2, §3, §4

OPN1SW [4] = target: T4, OPN1SW (Homo sapiens, UniProt P03999); assay: Calcium flux GPCR activation assay with Fluo-8 dye, opsin-expressing HEK293T cells, OPN1SW; assay type: cell-based; details: Fluo-8 calcium flux, data not shown
T4 construct: expressed in transfected cells; host or cells: HEK293T
T4 sequence (P03999 1-345): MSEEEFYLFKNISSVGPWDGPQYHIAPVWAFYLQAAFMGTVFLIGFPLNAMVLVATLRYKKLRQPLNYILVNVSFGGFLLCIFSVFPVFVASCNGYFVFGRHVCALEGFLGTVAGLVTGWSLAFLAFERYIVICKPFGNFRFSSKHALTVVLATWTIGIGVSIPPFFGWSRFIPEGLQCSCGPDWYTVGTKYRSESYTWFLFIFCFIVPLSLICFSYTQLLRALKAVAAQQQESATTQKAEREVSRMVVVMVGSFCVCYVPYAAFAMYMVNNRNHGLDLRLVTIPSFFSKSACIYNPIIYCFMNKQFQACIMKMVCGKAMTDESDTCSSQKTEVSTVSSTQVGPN
Method: as §1

SMILES	aversive response to the bitter flavor (lick ratio), TRPM5 knockout mice (TRPM5 knockout mice)	activation of calcium dye OPN3 detection elements (OPN3 [1])	activation of OPN3, fold-change from baseline luciferase signal vs. log concentration of tastant (OPN3 [2])	aversion to the bitter flavor (lick ratio), OPN3 knockout mice compared to wild type mice (OPN3 knockout mice)	activation of OPN1SW, fold-change from baseline luciferase signal vs. log concentration of tastant (OPN1SW [3])	activation of calcium dye OPN1SW detection elements (OPN1SW [4])
C[C@@H]1O[C@@H](O[C@H]2[C@H](Oc3cc(O)c4c(c3)O[C@H](c3ccc(O)cc3)CC4=O)O[C@H](CO)[C@@H](O)[C@@H]2O)[C@H](O)[C@H](O)[C@H]1O [naringin]	lost the aversive response	significantly activated in a concentration dependent manner	activation of OPN3; also recorded: activated; also recorded: potent activator of OPN3	reduced aversion	–	–
Cn1c(=O)c2[nH]cnc2n(C)c1=O [theophylline]	–	–	–	–	activation of OPN1SW; also recorded: activated	significantly activated in a concentration dependent manner
